The results in this text go back to US20240067683A1, “USE OF MCM8-CGAS-STING-IFN-I SIGNAL PATHWAY AS DISEASE TARGET” (Guangzhou Women and Children's Medical Center, priority 2020, published 2024).

For experiment [1], the system named is mitochondrial DNA in cytoplasm. Nature of the experiment: Cytoplasmic DNA source by Q-PCR after nuclear-cytoplasmic separation in THP-1 cells. It is filed as cell-based, human. Particulars: control THP-1 cells treated with Mdivi, with or without SeV or LPS; similar to MCM8 knockdown. The text has this: Therefore, in order to explore whether DNA is produced in cytoplasm and the source, the inventors further knocked down MCM8 in THP-1 cells by transfection with MCM8-specific siRNA and stimulated the cells with SeV or poly(dA:dT). The stimulated cells were subjected to nuclear-cytoplasmic separation (Beyotime nuclear protein and cytoplasmic protein extraction kit was used for the nuclear-cytoplasmic separation herein, and the operation followed the instructions, the same below), and the cytoplasmic DNA was extracted for detecting the source of cytoplasmic DNA by qPCR.
Furthermore, the MCM8-knockdown THP-1 cells were stimulated or not stimulated with SeV and LPS, respectively, and treated with or without the mitophagosome formation inhibitor Mdivi, and the cytoplasmic DNA was extracted, and the content of mitochondrial DNA in cytoplasm and the expressions of IFNα and IFNβ were detected by Q-PCR.

The subject of experiment [2] is IFNα and IFNβ. Briefly: Expression of IFNα and IFNβ by Q-PCR in THP-1 cells treated with mitophagosome formation inhibitor Mdivi. The format is cell-based, human. Particulars: control THP-1 cells treated with Mdivi, with or without SeV or LPS; similar to MCM8 knockdown.

As to `COc1cc(-n2c(=S)[nH]c3ccccc3c2=O)c(Cl)cc1Cl` [Mdivi], the “mtDNA aggregation in cytoplasm (Q-PCR)” value in experiment [1] is recorded as “mtDNA aggregation”. Besides, the “expression levels of IFNα and IFNβ” value in experiment [2] was “increase in the expression levels of IFNα and IFNβ”.
